Measured values as given in patent US12673052B2, “Combinations for the treatment of cancer” (Exelixis, Inc., priority 2020, dated 2026).

Experiments:
CYP2B6 [1] = assay: CYP/UGT substrate specificity (recombinant Supersomes, chemical inhibitors in human liver microsomes); format: in vitro ADME
Experimental: (§1) Plasma PK of Compound 1 was characterized in rats and beagle dogs. Toxicokinetic (TK) evaluations of oral Compound 1 were evaluated in repeat-dose studies in rats and dogs. Plasma protein binding was determined in mouse, rat, dog, monkey, and human plasma in vitro. Biotransformation and metabolite profiling of Compound 1 were investigated in vitro using mouse, rat, dog, monkey, and human liver microsomal fractions and hepatocytes and in vivo in rats and dogs. P-glycoprotein (P-gp) and breast cancer resistance protein (BCRP) transporter interaction studies, in vitro experiments evaluating cytochrome P450 (CYP) induction and inhibition by Compound 1, and CYP and glucuronosyltransferase (UGT) substrate specificity studies of Compound 1 were also performed.

CYP2C9 [2] = assay: as above; format: in vitro ADME
Experimental: as §1

UGT1A9 = molecular target: T1, UGT1A9 (Homo sapiens, UniProt O60656); assay: as above; format: in vitro ADME
T1 construct: purchased; host or cells: recombinant Supersomes; human liver microsomes
Experimental: as §1

UGT1A4 = molecular target: T2, UGT1A4 (Homo sapiens, UniProt P22310); assay: as above; format: in vitro ADME
T2 construct: purchased; host or cells: recombinant Supersomes; human liver microsomes
T2 sequence (P22310 29-534): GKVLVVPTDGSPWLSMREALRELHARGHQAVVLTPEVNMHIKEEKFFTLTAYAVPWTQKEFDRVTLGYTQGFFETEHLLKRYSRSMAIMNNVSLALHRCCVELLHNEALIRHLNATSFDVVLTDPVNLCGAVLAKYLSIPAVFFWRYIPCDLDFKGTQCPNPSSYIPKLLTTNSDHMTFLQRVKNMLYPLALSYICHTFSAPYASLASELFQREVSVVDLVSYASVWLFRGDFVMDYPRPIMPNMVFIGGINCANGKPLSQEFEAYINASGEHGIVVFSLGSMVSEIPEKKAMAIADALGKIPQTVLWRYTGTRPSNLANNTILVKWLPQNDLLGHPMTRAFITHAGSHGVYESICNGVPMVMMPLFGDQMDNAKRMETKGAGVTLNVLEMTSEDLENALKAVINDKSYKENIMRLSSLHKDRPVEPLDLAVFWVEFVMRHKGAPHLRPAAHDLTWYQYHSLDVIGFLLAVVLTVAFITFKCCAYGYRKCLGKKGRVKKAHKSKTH
Experimental: as §1

UGT1A1 = molecular target: T3, UGT1A1 (Homo sapiens, UniProt P22309); assay: as above; format: in vitro ADME
T3 construct: purchased; host or cells: recombinant Supersomes; human liver microsomes
Experimental: as §1

[3] = GLP safety pharmacology: cardiovascular, telemeterized dogs; format: in vivo
Experimental: The nonclinical toxicity of Compound 1 was characterized in dose range-finding 7-day and definitive 28-day repeat-dose studies in rats and dogs, and in in vitro bacterial and mammalian genotoxicity bioassays. Compound 1 was also evaluated in definitive neurobehavioral, respiratory and cardiovascular safety pharmacology studies.

CYP1A2 = CYP1A2 (Homo sapiens, UniProt P05177); assay: Cytochrome P450 inhibition in vitro; format: in vitro ADME; conditions: low CYP inhibition potential
Experimental: as §1

CYP 2B6 = CYP 2B6 (Homo sapiens, UniProt P20813); assay: Cytochrome P450 inhibition in vitro; format: in vitro ADME; conditions: low CYP inhibition potential
Experimental: as §1

CYP2C8 = CYP2C8 (Homo sapiens, UniProt P10632); assay: Cytochrome P450 inhibition in vitro; format: in vitro ADME
Experimental: as §1

CYP2C19 = CYP2C19 (Homo sapiens, UniProt P33261); assay: Cytochrome P450 inhibition in vitro; format: in vitro ADME
Sequence of CYP2C19 (P33261 whole entry): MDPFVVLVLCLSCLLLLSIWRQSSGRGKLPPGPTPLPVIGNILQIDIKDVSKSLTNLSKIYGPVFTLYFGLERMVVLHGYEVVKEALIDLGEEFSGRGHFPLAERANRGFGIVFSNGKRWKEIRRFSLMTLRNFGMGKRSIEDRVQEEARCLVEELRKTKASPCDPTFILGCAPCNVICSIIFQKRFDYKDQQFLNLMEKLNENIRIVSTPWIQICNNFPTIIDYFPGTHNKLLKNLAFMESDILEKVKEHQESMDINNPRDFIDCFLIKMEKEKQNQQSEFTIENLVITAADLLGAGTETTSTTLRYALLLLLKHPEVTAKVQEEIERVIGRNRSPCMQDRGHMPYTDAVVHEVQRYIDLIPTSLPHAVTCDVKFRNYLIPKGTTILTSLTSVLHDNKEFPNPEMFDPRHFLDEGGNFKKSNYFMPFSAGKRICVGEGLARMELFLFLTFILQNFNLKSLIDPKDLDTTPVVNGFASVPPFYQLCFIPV
Experimental: as §1

CYP3A4 = CYP3A4 (Homo sapiens, UniProt P08684); assay: Cytochrome P450 inhibition in vitro; format: in vitro ADME
Sequence of CYP3A4 (P08684 whole entry): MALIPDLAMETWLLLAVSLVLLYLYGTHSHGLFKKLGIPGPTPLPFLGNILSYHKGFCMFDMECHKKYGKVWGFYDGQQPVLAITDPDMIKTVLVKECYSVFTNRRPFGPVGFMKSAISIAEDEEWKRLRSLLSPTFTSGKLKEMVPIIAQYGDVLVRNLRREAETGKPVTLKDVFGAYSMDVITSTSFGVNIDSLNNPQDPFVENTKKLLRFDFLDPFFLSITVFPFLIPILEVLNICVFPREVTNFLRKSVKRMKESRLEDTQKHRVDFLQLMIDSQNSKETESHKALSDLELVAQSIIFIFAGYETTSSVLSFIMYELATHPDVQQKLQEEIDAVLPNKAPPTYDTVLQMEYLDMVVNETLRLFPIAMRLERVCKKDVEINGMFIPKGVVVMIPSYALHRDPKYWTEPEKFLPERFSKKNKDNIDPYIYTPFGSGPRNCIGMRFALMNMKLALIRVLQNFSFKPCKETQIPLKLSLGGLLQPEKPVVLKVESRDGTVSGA
Experimental: as §1

CYP2C9 [4] = molecular target: CYP2C9 (Homo sapiens, UniProt P11712); assay: Cytochrome P450 inhibition in vitro; format: in vitro ADME
Experimental: as §1

CYP2D6 = CYP2D6 (Homo sapiens, UniProt P10635); assay: Cytochrome P450 inhibition in vitro; format: in vitro ADME; conditions: low CYP inhibition potential
Experimental: as §1

[5] = Toxicokinetics in 28-day repeat-dose toxicity study; format: in vivo, dogs; conditions: for half-life: oral
Experimental: In a 28-day repeat-dose toxicity study in dogs dosed orally daily with Compound 1 at 2, 6 and 18 mg/kg, high variability in Compound 1 exposure was generally observed for all dose levels on Days 1 and 28. Across the dose range evaluated, the mean % CV for Cmax and AUC0-24 was 46.2-93.2% and 45.5-91%, respectively, on Day 1 and 39.3-53.9% and 36.2-51.1%, respectively, on Day 28.

MER = MER (Homo sapiens, UniProt Q12866); assay: Kinase catalytic activity assay, radioactive assay platform; format: biochemical; conditions: 10 μM ATP
Sequence of MER (Q12866 21-999): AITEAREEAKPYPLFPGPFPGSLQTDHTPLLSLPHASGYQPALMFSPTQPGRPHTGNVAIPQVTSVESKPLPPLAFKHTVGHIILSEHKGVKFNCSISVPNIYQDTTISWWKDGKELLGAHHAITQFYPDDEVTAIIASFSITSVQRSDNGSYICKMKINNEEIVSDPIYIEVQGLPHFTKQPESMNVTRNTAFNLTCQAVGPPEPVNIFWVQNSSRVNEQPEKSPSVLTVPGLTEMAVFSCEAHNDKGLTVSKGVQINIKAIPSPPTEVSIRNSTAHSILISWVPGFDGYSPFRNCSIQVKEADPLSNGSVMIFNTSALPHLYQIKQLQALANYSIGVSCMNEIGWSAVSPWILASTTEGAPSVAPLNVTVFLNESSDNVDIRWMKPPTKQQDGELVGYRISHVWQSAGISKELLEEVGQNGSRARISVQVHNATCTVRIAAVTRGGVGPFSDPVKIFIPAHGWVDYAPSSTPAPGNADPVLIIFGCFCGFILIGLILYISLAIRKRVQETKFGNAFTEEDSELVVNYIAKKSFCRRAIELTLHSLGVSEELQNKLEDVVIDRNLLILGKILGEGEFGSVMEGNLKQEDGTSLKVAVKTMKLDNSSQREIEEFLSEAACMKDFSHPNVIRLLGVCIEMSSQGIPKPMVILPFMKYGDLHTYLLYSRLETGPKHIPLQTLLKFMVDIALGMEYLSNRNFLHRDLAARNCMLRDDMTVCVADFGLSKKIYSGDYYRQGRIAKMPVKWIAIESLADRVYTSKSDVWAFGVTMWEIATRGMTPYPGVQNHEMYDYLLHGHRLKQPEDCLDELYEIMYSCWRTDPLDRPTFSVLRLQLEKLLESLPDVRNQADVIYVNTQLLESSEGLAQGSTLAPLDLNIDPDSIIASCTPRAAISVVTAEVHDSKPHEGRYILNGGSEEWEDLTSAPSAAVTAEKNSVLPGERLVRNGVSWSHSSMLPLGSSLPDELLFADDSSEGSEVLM
Experimental: (§2) Compound 1 inhibitory activity was evaluated in multiple kinase catalytic activity assays using a radioactive assay platform. […] All in vitro biochemical assays were performed at 10 μM ATP concentrations.

MET [6] = molecular target: T4, MET (Homo sapiens, UniProt P08581); assay: as above; format: biochemical; conditions: 10 μM ATP
T4 sequence (P08581 25-1390): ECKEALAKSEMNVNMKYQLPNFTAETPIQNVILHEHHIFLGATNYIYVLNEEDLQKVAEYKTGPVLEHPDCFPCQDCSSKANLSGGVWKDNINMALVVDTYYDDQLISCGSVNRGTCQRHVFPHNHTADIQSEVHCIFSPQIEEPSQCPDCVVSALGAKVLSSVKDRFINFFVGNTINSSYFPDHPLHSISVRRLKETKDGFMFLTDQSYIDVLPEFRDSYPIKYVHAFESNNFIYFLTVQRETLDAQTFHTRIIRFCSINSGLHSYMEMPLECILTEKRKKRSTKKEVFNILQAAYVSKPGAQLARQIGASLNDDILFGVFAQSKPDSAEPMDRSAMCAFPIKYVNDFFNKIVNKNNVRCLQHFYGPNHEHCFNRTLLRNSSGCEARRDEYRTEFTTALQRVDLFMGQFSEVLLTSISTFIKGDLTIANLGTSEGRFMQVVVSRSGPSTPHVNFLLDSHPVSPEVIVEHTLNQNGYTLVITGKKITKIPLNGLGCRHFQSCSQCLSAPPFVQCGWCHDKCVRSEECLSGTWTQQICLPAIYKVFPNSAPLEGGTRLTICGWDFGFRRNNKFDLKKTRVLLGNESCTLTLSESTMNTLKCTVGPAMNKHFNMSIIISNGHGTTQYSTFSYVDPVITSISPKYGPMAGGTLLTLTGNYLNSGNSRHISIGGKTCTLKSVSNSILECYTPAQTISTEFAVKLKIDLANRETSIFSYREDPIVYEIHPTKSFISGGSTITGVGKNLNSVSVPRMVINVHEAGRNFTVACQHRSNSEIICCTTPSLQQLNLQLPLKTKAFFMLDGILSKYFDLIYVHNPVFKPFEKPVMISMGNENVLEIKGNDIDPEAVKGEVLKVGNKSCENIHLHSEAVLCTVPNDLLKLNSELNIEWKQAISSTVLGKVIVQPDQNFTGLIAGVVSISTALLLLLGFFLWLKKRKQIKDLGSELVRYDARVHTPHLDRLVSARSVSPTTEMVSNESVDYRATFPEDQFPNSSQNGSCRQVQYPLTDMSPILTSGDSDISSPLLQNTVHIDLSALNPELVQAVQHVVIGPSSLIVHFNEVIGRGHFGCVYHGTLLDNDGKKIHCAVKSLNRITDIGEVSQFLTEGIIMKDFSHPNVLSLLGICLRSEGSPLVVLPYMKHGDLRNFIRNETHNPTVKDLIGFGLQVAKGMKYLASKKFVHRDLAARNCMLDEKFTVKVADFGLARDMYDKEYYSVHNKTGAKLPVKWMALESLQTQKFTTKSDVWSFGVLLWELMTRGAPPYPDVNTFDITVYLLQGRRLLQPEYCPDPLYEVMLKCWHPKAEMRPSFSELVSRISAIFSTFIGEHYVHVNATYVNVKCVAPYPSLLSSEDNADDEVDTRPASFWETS
Experimental: as §2

VEGFR2 = VEGFR2 (Homo sapiens, UniProt P35968); assay: as above; format: biochemical; conditions: 10 μM ATP
Experimental: as §2

AXL = AXL (Homo sapiens, UniProt P30530); assay: as above; format: biochemical; conditions: 10 μM ATP
Sequence of AXL (P30530 26-894): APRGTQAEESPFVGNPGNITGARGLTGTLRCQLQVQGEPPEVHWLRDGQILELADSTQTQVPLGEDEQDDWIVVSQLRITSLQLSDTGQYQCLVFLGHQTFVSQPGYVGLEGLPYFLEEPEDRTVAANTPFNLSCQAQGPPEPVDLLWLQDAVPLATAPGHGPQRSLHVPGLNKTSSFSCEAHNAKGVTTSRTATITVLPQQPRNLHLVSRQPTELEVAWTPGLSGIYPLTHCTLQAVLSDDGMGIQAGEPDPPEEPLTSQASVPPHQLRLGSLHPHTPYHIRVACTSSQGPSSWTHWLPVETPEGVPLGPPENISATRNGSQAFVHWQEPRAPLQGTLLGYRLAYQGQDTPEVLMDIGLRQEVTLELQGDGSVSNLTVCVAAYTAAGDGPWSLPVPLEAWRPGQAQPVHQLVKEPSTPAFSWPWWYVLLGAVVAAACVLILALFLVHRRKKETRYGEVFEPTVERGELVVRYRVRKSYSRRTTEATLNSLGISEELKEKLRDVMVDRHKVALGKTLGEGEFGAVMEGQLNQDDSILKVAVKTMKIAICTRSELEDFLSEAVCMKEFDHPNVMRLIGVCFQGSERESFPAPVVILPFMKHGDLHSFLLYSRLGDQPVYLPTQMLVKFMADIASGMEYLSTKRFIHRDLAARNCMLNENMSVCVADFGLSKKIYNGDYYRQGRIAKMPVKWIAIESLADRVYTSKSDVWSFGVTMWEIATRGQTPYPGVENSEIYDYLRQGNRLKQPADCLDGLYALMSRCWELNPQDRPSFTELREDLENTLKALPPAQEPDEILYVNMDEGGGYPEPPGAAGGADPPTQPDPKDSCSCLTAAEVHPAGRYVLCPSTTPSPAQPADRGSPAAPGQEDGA
Experimental: as §2

CYP2B6 [7] = assay: Cytochrome P450 induction (mRNA levels) in fresh primary human hepatocytes; format: in vitro ADME
MET [8] = molecular target: T4, MET; assay: RTK autophosphorylation ELISA, PC-3 cells stimulated with HGF; format: cell-based; parameters: cell lines (PC-3, HUVEC, and A-172) stimulated with ligands to their respective receptors to induce autophosphorylation (MET, VEGFR2, and AXL); endogenous in cells; host or cells: PC-3; conditions: MET (PC-3), ligand HGF; read-out: Cellular IC50
Experimental: (§3) The activity of Compound 1 was evaluated in cell-based assays that assessed the mechanistic effects of the compound in tumor and normal cells. Consistent with the biochemical data, Compound 1 is a potent inhibitor of cellular RTKs as assessed by analysis of receptor autophosphorylation as measured by enzyme-linked immunosorbent assay. Assays were performed using cell lines (PC-3, HUVEC, and A-172) stimulated with ligands to their respective receptors to induce autophosphorylation (MET, VEGFR2, and AXL) or a cell line (293A) transfected with an expression vector encoding the receptor of interest (MER). Inhibition of endogenous phosphorylated MET by Compound 1 in Hs 746T gastric carcinoma cells was also investigated due to the presence of the skip-splice mutation of exon 14 in the MET gene. This MET exon 14 alteration leads to increased MET stability and oncogenic activation, including constitutive MET phosphorylation. Also this mutation is known to occur in 3% of lung adenocarcinoma patients and to be sensitive to MET-targeted therapies (Frampton et al 2015).

MET [9] = molecular target: T5, MET (Homo sapiens, UniProt P08581, DEL964-1010); assay: Endogenous phosphorylated MET in Hs 746T gastric carcinoma cells (MET exon 14 skip-splice mutation); format: cell-based; conditions: MET (Hs 746T), no ligand; read-out: Cellular IC50
T5 construct: endogenous in cells; host or cells: Hs 746T gastric carcinoma cells
Experimental: as §3

With `CNC(=O)c1cc2c(Oc3ccc(NC(=O)C4(C(=O)Nc5ccc(F)cc5)CC4)cc3)ccnc2cc1OC` [Compound 1, 1-N′-(4-Fluorophenvl)-1-N-[4-[7-methoxy-6-(methylcarbamovl)quinolin-4-yl]oxyphenyl]cyclopropane-1,1-dicarboxamide] the substrate of enzyme (CYP2B6 [1]) was “not to be a substrate”, the substrate of enzyme (CYP2C9 [2]) was “weaker substrate” and the substrate of enzyme (UGT1A9) was “not to be a substrate”. The “role in Compound 1 metabolism” value (UGT1A4) was “may play a minor role”, the substrate of enzyme (UGT1A1) was “not to be a substrate” and the “plasma Cmax relative to hERG channel IC50” value ([3]; 18 mg/kg single dose, Cmax higher than IC50) was “approximately 2 fold”. For the same molecule, the Cmax ([3]; dog, plasma, oral, single dose 18 mg/kg, male telemeterized dogs) was roughly 7 µM, the QTc interval ([3]; male telemeterized dogs, single doses as high as 18 mg/kg) was “no QTc interval prolongation” and the “effect on cardiovascular parameters” value ([3]; single oral doses as high as 18 mg/kg, through 18 hours postdose) was “no significant effect on cardiovascular parameters”. It also gave an IC50 (CYP1A2) greater than 33 µM, an IC50 (CYP 2B6) greater than 33 µM and a Ki (CYP2C8) of 1270 nM. For the same molecule, the Ki (CYP2C19) was 1360 nM, the Ki (CYP3A4) was 25.2 µM and the time-dependent inhibition (CYP3A4; testosterone as probe substrate) was “time-dependent inhibitor”. The Ki (CYP2C9 [4]) was 7.11 µM, the IC50 (CYP2D6) was greater than 33 µM and the “mean accumulation ratio for AUC0-24” value ([5]; 18 mg/kg dose level) was 0.874. For the same molecule, the “mean accumulation ratio for Cmax” value ([5]; 18 mg/kg dose level) was 0.891, the “mean accumulation ratio for AUC0-24” value ([5]; 2 and 6 mg/kg dose levels) was 1.57-3.38 and the “mean accumulation ratio for Cmax” value ([5]; 2 and 6 mg/kg dose levels) was 1.67-4.75. For the same molecule, the “Sex differences in mean Cmax and AUC0-24 values” ([5]; 28-day study) was “less than 2 fold”, the half-life ([5]; both sexes, dog, plasma, Day 1) was 274 to 377 min and the half-life ([5]; both sexes, dog, plasma, Day 28) was 238 to 314 min. It also gave a Tmax ([5]; both sexes, dog, plasma, oral gavage 2, 6 and 18 mg/kg, Days 1 and 28, read-out: median Tmax) of 2 h, an IC50 (MER) of 0.6 nM and an IC50 (MET [6]) of 3 nM. It also gave an IC50 (VEGFR2) of 15 nM, an IC50 (AXL) of 5.8 nM and an EC50 (CYP2B6 [7]; human, fresh primary human hepatocytes, mRNA induction, read-out: half-maximal effective concentration (EC50)) of 5.41 µM. For the same molecule, the “maximal induction effect (Emax)” value (CYP2B6 [7]; mRNA, 0.1-100 μM) was 17 fold, the IC50 (MET [8]) was 15 nM and the IC50 (MET [9]) was 26 nM.
